The results in this text go back to patent US20150133524A1, “PYRUVATE DEHYROGENASE KINASES AS THERAEUTIC TARGETS FOR CANCER AND ISCHEMIC DISEASES” (THE JOHNS HOPKINS UNIVERSITY, priority 2004, published 2015).

One series relates to PDK1. The series can be described thus: Immunoblot of PDK1 protein expression in P493-6 cells. The series is classed as cell-based, human. As to conditions: for PDK1 expression: P493-6 cells after electroporation with 100 nM siRNA, FIG. 4A. For orientation: A western blot detects proteins with antibodies after separation by electrophoresis.
Another series concerns P493-6 cells. The series can be described thus: Growth curves of P493-6 cells electroporated with siRNA. In kind it is cell-based, human. As to conditions: 100 nM siRNA electroporated; hypoxia (0.1% O2); versus scrambled control siRNA; FIG. 4B. On the procedure: siRNA targeting human PDK1 was designed and purchased from Dharmacon Research Inc (Lafayette, Colo.). 3×10^6 P493-6 cells were electroporated (1500 uF and 240 volts) with 100 nM of PDK1 siRNA (5′-CUACAUGAGUCGCAUUUCAdTdT-3′) (SEQ ID NO: 1). or scrambled control siRNA (5′-CACGCUCGGUCAAAAGGUUdTdT-3′) (SEQ ID NO: 7). in a 4 mm cuvette (BTX) using a Gene Pulser Xcell (Bio-Rad, Hercules, Calif.). The following day, 5×10^5 viable cells were subjected to hypoxic exposure (0.1% O2). At indicated times, viable cells were counted for growth curve, and the cellular proteins were harvested for Western blot analysis.

For series [1], the system named is Hif1a−/− MEFs. The series can be described thus: Cell proliferation assay (viable cell count) of Hif1a−/− MEFs.
For series [2], the system named is Hif1a−/− MEFs.

Read-outs that look alike come from different tables or passages of the source.

“5′-CACGCUCGGUCAAAAGGUUdTdT-3′ (dTdT overhang, complementary strand not cited, chemistry not fully specified) [scrambled control siRNA]”: the PDK1 expression entry with PDK1 is given as “did not reduce PDK1 expression”. For the compound “5′-CUACAUGAGUCGCAUUUCAdTdT-3′ (dTdT overhang, complementary strand not cited, chemistry not fully specified) [PDK1 siRNA, siRNA targeting human PDK1, designed and purchased from Dharmacon]”, the “growth of P493-6 cells in hypoxia” value in the series with P493-6 cells is listed as “impaired”. In the series with PDK1, the PDK1 expression entry is listed as “reduced”. `[Cl-].[Cl-].[Co+2]` [CoCl2]: the PDK1 levels entry in the series on PDK1 was “increased”. For the compound `C=C(C)[C@H]1Cc2c(ccc3c2O[C@@H]2COc4cc(OC)c(OC)cc4[C@@H]2C3=O)O1` [Rotenone, rotenone], the “rescue (growth) of hypoxic Hif1a−/− mouse embryo fibroblasts” value in the series on Hif1a−/− MEFs [1] (0.1 μM rotenone, hypoxic (0.5% O2), FIG. 3D) is given as “able to rescue”. Besides, the “proliferation of normoxic Hif1a−/− MEFs” value with Hif1a−/− MEFs [1] (0.1 μM rotenone, normoxic (20% O2), FIG. 3D) is given as “inhibited proliferation”. On to `CO/C(=C/C(N)=O)[C@H](C)[C@H](/C=C/c1csc(-c2csc([C@@H](C)/C=C/C=C/C(C)C)n2)n1)OC` [myxothiazol], for which, in the series with Hif1a−/− MEFs [1] (both normoxic and hypoxic cells), the “toxicity to normoxic and hypoxic Hif1a−/− MEFs” value is “toxic”.

In the case of antimycin A, in the series on Hif1a−/− MEFs [2], the “toxicity to normoxic and hypoxic Hif1a−/− MEFs” value is listed as “toxic”.
